According to paper PMC6943552, “Glucosinolates in Sisymbrium officinale (L.) Scop.: Comparative Analysis in Cultivated and Wild Plants and in Vitro Assays with T2Rs Bitter Taste Receptors” (Molecules, 2019):

Molecular target: T1, T2R16 (hT2R16) (Homo sapiens, UniProt Q9NYV7)
T1 construct: gene TAS2R16; coding region with N-terminal rSST3 tag (45 N-terminal residues of rat somatostatin receptor subtype 3), pcDNA5, transient in HEK293 PEAKrapid Galpha16i/o44 cells
T1 sequence (Q9NYV7 1-291): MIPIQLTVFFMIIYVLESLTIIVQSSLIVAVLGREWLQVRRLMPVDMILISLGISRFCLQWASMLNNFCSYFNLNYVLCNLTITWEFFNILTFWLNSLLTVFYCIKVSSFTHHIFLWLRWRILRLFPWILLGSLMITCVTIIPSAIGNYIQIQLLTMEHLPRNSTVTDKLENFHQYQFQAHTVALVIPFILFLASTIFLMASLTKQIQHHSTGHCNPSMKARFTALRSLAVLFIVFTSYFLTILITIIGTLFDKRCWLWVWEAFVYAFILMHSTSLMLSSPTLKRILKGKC
Assay: FLIPR calcium imaging (Cal520-AM)
Format: cell-based

CC(C)/C(=N/OS(=O)(=O)O)S[C@@H]1O[C@H](CO)[C@@H](O)[C@H](O)[C@H]1O [compound 3, glucoputranjivin]
EC50: > 1000 µM
